Structures can show the parent of a compound that is named as a salt.
Test system: sweet taste of L-alanine
Experiment: Sweet taste detection threshold of L-alanine/Pyridinium-Betaine mixtures (triangle test, sensory panel)
Format: in vivo
Settings: mixture with L-alanine; for Threshold decrease: vs L-alanine in water 12.5 mmol/L
Method: • Sensory panel training: […] Sensory analyses were performed in a sensory panel room at 22-25° C. on three different sessions. • Taste thresholds: The taste thresholds of the tastants or mixtures containing basic tastants plus Pyridinium-Betains were determined in a triangle test using Evian® mineral water as the solvent at a defined pH ([…] and H.-D. Belitz, Z. Lebensm. Unters. Forsch. 1975, 159, 65-72). The samples (3 mL) were presented in order of increasing concentrations (serial 1:1 dilutions). The threshold values evaluated in two different sessions were averaged. […] The taste intensities of aqueous (Evian®) solutions containing a basic tastant, such as glucose and MSG, for example, in constant concentrations and the compounds of the general formula (A), for example […], in various concentrations were compared with those of a solution containing the basic tastant only. To achieve this, triangle tests were performed with two glass vials containing the basic tastant in constant concentrations, and one glass vial containing a stepwise 1:1-diluted mixture of basic […]. […] The relative taste strength (taste enhancing factor) of a mixture containing the basic […] was related to the basic tastants glucose, MSG, or other tastants, respectively, as standard substances, and was determined as the ratio of the concentrations c of iso-intensely tasting solutions of the basic tastant, such as glucose (glc), and the mixture containing tastant plus Pyridinium-Betain, […])=[…] […] This taste enhancing effect is illustrated in examples. Besides the two carbohydrates, the sweet amino acid L-alanine was also tested with […]. Again, the best impact on sweet taste perception was found for the mixture at pH 9.0, resulting in an 8-fold lower threshold.

Compound: CC(C(=O)[O-])[n+]1cc(O)ccc1CO (stereo not shown) [Alapyridaine, N-(1-carboxyethyl)-3-hydroxy-6-hydroxymethyl-pyridinium inner salt]
- reduction of the sweet threshold (pH 5.0): only a slight reduction
- Sweet detection threshold (pH 6.0): 6.0 mmol/kg water
- Taste quality (pH 6.0): sweet
- Threshold decrease (pH 6.0): 2.0
- Sweet detection threshold (pH 7.0): 3.0 mmol/kg water
- Taste quality (pH 7.0): sweet
- Threshold decrease (pH 7.0): 4
- Sweet detection threshold (pH 9.0): 1.5 mmol/kg water
- Taste quality (pH 9.0): sweet
- Threshold decrease (pH 9.0): 8
